In patent US20220273593A1, “COMPOUNDS AND COMPOSITIONS FOR TREATING KIDNEY DISEASE” (JOHANN WOLFGANG GOETHE-UNIVERSITÄT FRANKFURT AM MAIN, priority 2019, published 2022):
pEC50, pIC50, pKd: −log10 of the molar value. “Also recorded” adds a separate entry of the source.

Columns and labels:
[1] = molecular target: T1, FXR (Homo sapiens, UniProt Q96RI1); experiment: FXR activation (EC50, efficacy vs GW4064, mode); type: cell-based
T1 sequence (Q96RI1 1-486): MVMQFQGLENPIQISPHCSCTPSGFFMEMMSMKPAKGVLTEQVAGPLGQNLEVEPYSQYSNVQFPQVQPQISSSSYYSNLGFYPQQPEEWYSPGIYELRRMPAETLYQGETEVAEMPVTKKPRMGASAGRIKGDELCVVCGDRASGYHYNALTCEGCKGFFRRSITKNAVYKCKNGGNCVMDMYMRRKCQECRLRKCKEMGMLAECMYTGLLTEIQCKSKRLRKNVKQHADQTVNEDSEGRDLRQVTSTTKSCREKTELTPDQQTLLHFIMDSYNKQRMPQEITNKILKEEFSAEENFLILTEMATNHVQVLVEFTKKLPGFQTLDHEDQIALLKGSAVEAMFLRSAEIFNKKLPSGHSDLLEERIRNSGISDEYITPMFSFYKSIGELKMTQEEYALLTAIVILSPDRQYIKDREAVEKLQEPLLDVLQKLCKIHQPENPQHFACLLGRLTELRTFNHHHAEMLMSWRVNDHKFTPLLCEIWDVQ

[2] = molecular target: T2, sEH (Homo sapiens, UniProt P34913); experiment: sEH inhibition (cellular); type: cell-based
T2 sequence (P34913 1-555): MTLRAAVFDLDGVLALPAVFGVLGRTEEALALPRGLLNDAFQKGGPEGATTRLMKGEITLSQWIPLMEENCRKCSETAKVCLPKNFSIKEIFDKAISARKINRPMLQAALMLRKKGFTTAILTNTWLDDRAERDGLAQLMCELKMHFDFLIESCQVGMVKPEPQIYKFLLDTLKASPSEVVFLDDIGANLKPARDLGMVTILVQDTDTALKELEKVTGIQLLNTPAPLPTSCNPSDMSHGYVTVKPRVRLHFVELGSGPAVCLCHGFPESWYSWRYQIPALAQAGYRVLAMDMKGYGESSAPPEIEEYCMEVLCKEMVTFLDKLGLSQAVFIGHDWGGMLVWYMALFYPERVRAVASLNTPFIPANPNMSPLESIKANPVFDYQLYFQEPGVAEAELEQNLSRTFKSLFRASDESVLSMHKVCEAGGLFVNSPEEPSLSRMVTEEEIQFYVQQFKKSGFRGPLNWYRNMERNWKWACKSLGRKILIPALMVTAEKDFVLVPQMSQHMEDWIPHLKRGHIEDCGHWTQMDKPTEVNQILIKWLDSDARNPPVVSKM

[3] = test system: C57BL/6JRj mice; experiment: DIO NASH model (Gubra Amylin NASH Diet); type: in vivo; conditions: 12 weeks, DM or MH 10 mg/kg, Obeticholic Acid 30 mg/kg
Procedure: In vivo effects of the compounds (DM and MH) were examined in a NASH model which is outlined by the timeline in FIG. 8A. 41 weeks before treatment NASH was induced in C57BL/6JRj mice by using the Gubra Amylin NASH Diet. After stratification, randomization and base-line measurements the mice were divided into four groups (16 mice per group). Each group was either dosed with 10 mg/kg of DM or MH, 30 mg/kg Obeticholic Acid or vehicle for 12 weeks respectively. […] After four weeks of treatment (FIG. 8C) and after termination (FIG. 8D) biochemical parameters were determined to examine and compare liver health (plasma alanine aminotransferase and plasma aspartate aminotransferase) and lipid homeostasis (plasma triglycerides and plasma total cholesterol) among treatment groups and healthy mice. Furthermore, livers of all animals were analyzed by histopathology and the use of immuno-histochemistry (FIG. 9 and FIG. 10). […] Inflammatory effects in the treatment groups are shown in FIG. 13a in a similar manner including a post-treatment histopathological analysis of inflammatory markers for the different treatment groups in FIG. 13b to investigate the anti-inflammatory in vivo activity of the compounds.

[4] = test system: UUO mice; experiment: UUO renal fibrosis model, Protocol 1 (preventive pre-treatment); type: in vivo, Male C57Bl/6J mice
Procedure: This study was approved and conducted according to guidelines of the Institutional Animal Care and Use Committee, Medical College of Wisconsin. The Biomedical Resource Center at the Medical College of Wisconsin housed animals with free access to water and food and a 12/12 h light-dark cycle. Male C57B1/6J mice (8-10 weeks old) were purchased from Jackson Laboratories, Bar Harbor, Me. Mice were administered 2.0% isoflurane to induce anesthesia prior to UUO surgery. UUO surgery was conducted with by obstructing the left ureter proximal to the renal pelvis using a 6-o silk tie (Sharma et al., 2016; Kim et al., 2015). Mice with sham surgery went through the same procedure as the UUO mice except that the ureter was not ligated. Two experimental protocols were used to determine renal antifibrotic actions of DM509 and in both protocols the mice were subjected to Sham surgery (n=6/protocol) or Unilateral Ureteral Obstruction (UUO) surgery to induce renal fibrosis. In Protocol 1, mice went through UUO surgery after 24 hours pre-treatment of DM509 (10 mg/kg/d, p.o., n=8) or vehicle (n=8) and blood and kidney tissue were collected at day 10 of the UUO surgery. Mice of the Protocol 2 treated with DM509 (n=8) or vehicle (n=8) after 3 days of UUO surgery and continued for 7 days followed by blood and kidney tissue collection. […] Kidney hydroxyproline levels were measured using a commercially available kit (Sigma Aldrich, USA). Blood urea nitrogen (BUN) is measured using a kit from Arbor Assay, USA and monocyte chemoattractant protein-1 (MCP-1) was measured using kit from R&D Systems, Inc., USA. Renal mRNA expression for several fibrotic [fibronectin, α-smooth muscle actin (α-SMA), fibroblast specific protein-1 (FSP-1], tubular injury [NGAL, kidney injury molecule-1 (KIM-1), Claudins1,3,4,5], inflammatory (TNF-α, IL1β, IL-6, ICAM, VCAM) were studied by Real Time-PCR (RT-PCR) analysis. RNeasy Mini Kit (QIAGEN, Calif., USA) was used according to the manufacturer's protocol and messenger RNA (mRNA) was prepared from each sample homogenate. The mRNA samples were quantified spectrophotometrically and 1 μg of total RNA was reverse-transcribed to cDNA using iScript™ Select cDNA Synthesis Kit (Bio-Rad, Hercules, Calif., USA). Gene expression was quantified by iScript One-Step RT-PCR Kit with SYBR green using the MyiQ™ Single Color Real-Time PCR Detection System (Bio-Rad Laboratories, Hercules, Calif., USA). Dissociation curve analysis was accomplished with iQ5 Optical System Software, Version 2.1 (Bio-Rad Laboratories, Hercules, Calif., USA), and each amplified sample analysed for homogeneity. […] All samples were run in triplicate and fold change in gene expression compared to controls determined by comparative threshold cycle (Ct) method. […]

[5] = test system: UUO mice; experiment: UUO renal fibrosis model, Protocol 2 (interventional treatment); type: in vivo, Male C57Bl/6J mice
Procedure: This study was approved and conducted according to guidelines of the Institutional Animal Care and Use Committee, Medical College of Wisconsin. The Biomedical Resource Center at the Medical College of Wisconsin housed animals with free access to water and food and a 12/12 h light-dark cycle. Male C57B1/6J mice (8-10 weeks old) were purchased from Jackson Laboratories, Bar Harbor, Me. Mice were administered 2.0% isoflurane to induce anesthesia prior to UUO surgery. UUO surgery was conducted with by obstructing the left ureter proximal to the renal pelvis using a 6-o silk tie (Sharma et al., 2016; Kim et al., 2015). Mice with sham surgery went through the same procedure as the UUO mice except that the ureter was not ligated. Two experimental protocols were used to determine renal antifibrotic actions of DM509 and in both protocols the mice were subjected to Sham surgery (n=6/protocol) or Unilateral Ureteral Obstruction (UUO) surgery to induce renal fibrosis. In Protocol 1, mice went through UUO surgery after 24 hours pre-treatment of DM509 (10 mg/kg/d, p.o., n=8) or vehicle (n=8) and blood and kidney tissue were collected at day 10 of the UUO surgery. Mice of the Protocol 2 treated with DM509 (n=8) or vehicle (n=8) after 3 days of UUO surgery and continued for 7 days followed by blood and kidney tissue collection. Kidney samples for histological and immune-histological studies were fixed in 10% buffered formalin and stored at room temperature. Serum and tissue samples for biochemical and gene expression analysis were snap-frozen in liquid nitrogen and stored at […]. Kidney hydroxyproline levels were measured using a commercially available kit (Sigma Aldrich, USA). Blood urea nitrogen (BUN) is measured using a kit from Arbor Assay, USA and monocyte chemoattractant protein-1 (MCP-1) was measured using kit from R&D Systems, Inc., USA. Renal mRNA expression for several fibrotic [fibronectin, α-smooth muscle actin (α-SMA), fibroblast specific protein-1 (FSP-1], tubular injury [NGAL, kidney injury molecule-1 (KIM-1), Claudins1,3,4,5], inflammatory (TNF-α, IL1β, IL-6, ICAM, VCAM) were studied by Real Time-PCR (RT-PCR) analysis. RNeasy Mini Kit (QIAGEN, Calif., USA) was used according to the manufacturer's protocol and messenger RNA (mRNA) was prepared from each sample homogenate. The mRNA samples were quantified spectrophotometrically and 1 μg of total RNA was reverse-transcribed to cDNA using iScript™ Select cDNA Synthesis Kit (Bio-Rad, Hercules, Calif., USA). Gene expression was quantified by iScript One-Step RT-PCR Kit with SYBR green using the MyiQ™ Single Color Real-Time PCR Detection System (Bio-Rad Laboratories, Hercules, Calif., USA). Dissociation curve analysis was accomplished with iQ5 Optical System Software, Version 2.1 (Bio-Rad Laboratories, Hercules, Calif., USA), and each amplified sample analysed for homogeneity. Denaturation was done at 95° C. for 2 min followed by 40 cycles conducted at 95° C. for 10 s and at 60° C. for 30 s. All samples were run in triplicate and fold change in gene expression compared to controls determined by comparative threshold cycle (Ct) method. Target gene expression levels were determined by normalizing Ct values to two housekeeping genes. Statistical analyses were carried out using six samples from each experimental group and comparing to the control group. […] PAS-stained tissue was evaluated for tubular injury whilst PSR was used to determine collagen-positive renal interstitial fibrosis levels. Histopathological changes were scored as published previously and scores presented as a percentage area-fraction relative to the total area analysed. Tubular injury (PAS-cast areas) and interstitial fibrosis (PSR-collagen positive areas) scoring was performed in a blinded fashion by two observers. […]

[6] = molecular target: T2, sEH; experiment: sEH inhibition (enzyme); type: biochemical
[7] = molecular target: T1, FXR; experiment: FXR binding (Kd)
[8] = DM509 pre-treatment 10 mg/kg/d p.o., day 10
[9] = interventional treatment 10 mg/kg/d, 7 days

CC(C)(C)c1ccc(C(=O)NCc2ccc(NS(C)(=O)=O)cc2Cl)cc1 [DM509]
pEC50 [1]: 7.70 | FXR efficacy [1]: 35 % of GW4064 | FXR mode of action [1]: partial agonist | pIC50 [2]: 9.00 | cumulative daily food intake, difference among treatment groups [3]: neither differences in cummulative daily food intake | lower collagen positive area than vehicle [4, 8]: 54% | lower renal mRNA expression of fibrotic markers (α-SMA, fibronectin) than vehicle [4, 8]: 40-60% | lower renal mRNA expression of inflammatory markers [4, 8]: 50-80% | kidney fibrosis (in words) ([4]; preventive treatment 10 mg/kg/d): decreased UUO kidney fibrosis | renal CD45 positive inflammatory cell infiltration (in words) [5]: reduced infiltration of these cells | renal VE-cadherin mRNA and CD31 positive cells (in words) [5]: markedly mitigated the decrease of VE-cadherin and CD31 positive cells | renal inflammation: renal MCP-1 level and cytokine (TNF-α, IL1β, IL6) expression (in words) [5]: markedly mitigated renal inflammation; also recorded: reduced renal inflammation | renal mRNA expression of claudins (in words) [5]: re-stored the mRNA expressions of claudins 1,3,4 and 5; also recorded: restoring claudin expressions | renal mRNA expression of tubular injury markers KIM-1 and NGAL (in words) [5]: mitigated this marked elevation | renal mRNA expression of vascular inflammatory markers ICAM and VCAM (in words) [5]: mitigated elevated expression | peritubular vascular density assessed by CD31 expression (in words) ([5]; interventional treatment): mitigated vascular density loss | EMT: mesenchymal (FSP-1, fibronectin, α-SMA) and epithelial (E-cadherin) marker expressions in kidney (in words) ([5]; interventional treatment 10 mg/kg/d): markedly attenuated EMT; also recorded: markedly reduced EMT | reduction of BUN ([5]; interventional treatment 10 mg/kg/d in drinking water, 7 days): 40% | reduction of collagen positive area [5, 9]: 65% | reduction of kidney hydroxyproline content [5, 9]: 41% | reduction of renal ICAM and VCAM gene expression [5, 9]: 40-50% | reduction of tubular injury markers (KIM-1, NGAL) [5, 9]: 25-50% | renal fibrosis: collagen positive area and renal hydroxyproline content (in words) ([5]; treatment from day 3 after UUO for 7 days): markedly mitigated renal fibrosis | pIC50 [6]: 8.40

CC(C)(C)c1ccc(C(=O)NCc2ccc(NS(C)(=O)=O)cc2Cl)s1 [MH]
FXR mode of action [1]: selective modulator | pIC50 [2]: > 9.00 | cumulative daily food intake, difference among treatment groups [3]: neither differences in cummulative daily food intake | pKd [7]: 5.85 | pIC50 [6]: > 9.00

CC[C@H]1[C@@H](O)[C@@H]2[C@H](CC[C@]3(C)[C@@H]([C@H](C)CCC(=O)O)CC[C@@H]23)[C@@]2(C)CC[C@@H](O)C[C@@H]12 [Obeticholic Acid, reference compound]
cumulative daily food intake, difference among treatment groups [3]: neither differences in cummulative daily food intake
